What was measured:
[1] = tested on: primary mouse colon fibroblasts; test: Inflammatory gene expression (RT-qPCR/RNAseq) in fibroblasts treated with APTKA conditioned medium; assay type: cell-based; conditions: APTKA conditioned medium, 24 h, RT-qPCR
Experimental: (A) Schematic illustration of APTKA or APTK organoids supernatant collection and treatment of primary mouse colon fibroblasts of unchallenged wildtype C57BL/6 mice. […] (F) Relative expression analysis by RT-qPCR of inflammatory genes in untreated wildtype and APTKA conditioned medium treated fibroblasts in the presence of IKKß inhibitor ML120B (30 μM) and p38 MAPK inhibitor SB203580 (10 μM) for 24 h (n=4 independent wells per group). Data are mean±SD. p<0.05 by one-way ANOVA followed by Tukey's multiple comparisons test. Representative results from one experiment which has been independently repeated 3 times. (G and H) RNA sequencing analysis of APTKA (n=3) and APTK (n=3) organoids: (G) heat map analysis; (H) differentially expressed cytokines in APTKA (Log 2 fold change≤−1) compared to APTK organoids (log 2 fold Change≥1). p-value<0.05. (I) RT-qPCR analysis of inflammatory genes in APTKA conditioned fibroblasts treated with control IgG, α-IL-1α, α-IL-33, α-TNF-α, α-BAFF or α-CXCL16 neutralizing antibodies (2 μg/mL each) for 24 h (n=4 independent wells per group). Data are mean±SD. **** p<0.0001 by one-way ANOVA followed by Tukey's multiple comparisons test. Experiment performed twice. (J) RNA expression profiles of inflammatory genes in APTKA conditioned fibroblasts stimulated for 24 h then subjected to anakinra (10 μg/mL), APTKA fresh or regular medium treatments for another 24 h (n=4 independent wells per condition). Data are mean±SD; p<0.05 by one-way ANOVA followed by Tukey's multiple comparisons test. Representative results from one experiment which has been independently repeated 2 times.
To examine whether APTK and APTKA tumour organoids differentially affect surrounding fibroblasts in tumours directly in a paracrine manner, supernatants were collected from both tumour organoid lines and treated primary intestinal fibroblasts of unchallenged wildtype mice for 24 hours with the two different tumour-conditioned media ex vivo (FIG. 3A). RNAseq analysis confirmed distinct gene expression patterns in fibroblasts exposed to the two organoid supernatants (FIG. 3B).
The inventors then aimed to identify the upstream factors secreted by APTKA organoids that were responsible for activating NF-κB and p38 in fibroblasts. To this end RNAseq analysis of APTK and APTKA tumour organoids were performed and identified several differentially expressed genes encoding cytokines (FIG. 3G, H). Using neutralizing antibodies, NF-κB and p38 inducing cytokines TNFα, IL-1α, IL-33, BAFF or CXCL16 were blocked in APTKA supernatants and expression of Cxcl1, Cxcl2, Cxcl5 and Ilia as inflammatory marker genes in fibroblasts was examined.
To do so, fibroblasts were stimulated for 24 hours with APTKA conditioned medium before adding anakinra, adding fresh APTKA medium or changing medium to regular medium.

colon fibroblasts [2] = test: Nitrite concentration by Griess assay in fibroblast supernatants; assay type: cell-based, mouse; conditions: APTKA-conditioned medium plus W1400 1 mM
Experimental: (§1) (A) Schematic illustration of APTKA organoids supernatant collection and treatment of colon fibroblasts from unchallenged wildtype C57BL/6 mice for 12 h followed by 3×2 Gy irradiation. Microscopic, proteomic & transcriptomic analysis were performed 72 h post first irradiation. (B) Microscopic captures of non-irradiated wildtype (WT) and APTKA conditioned fibroblasts. Remaining captures belong to irradiated fibroblasts: WT, IL-1α (1 μg/mL) stimulated WT, and APTKA conditioned media minus or plus anakinra (20 μg/mL) treated fibroblasts. Scale bars=200 μm. (C) Mass spectrometric analysis of matrisome profiles of 3×2 Gy irradiated (n=8) and non-irradiated (n=8) APTKA conditioned fibroblasts. […] (G) Immunoblot analysis of untreated and irradiated APTKA conditioned fibroblasts. Representative results from one experiment which has been independently repeated 2 times. (H) SA-ß gal staining of untreated and irradiated APTKA fibroblasts. Scale bars=100 μm. (I and J) p21 and pH2AX immunofluorescent staining of untreated and irradiated APTKA fibroblasts. Scale bars=[…]. Data are mean±SD. ** […] and *** p<0.001 by t-test. (K) Nitrite concentration determined by Griess assay in conditioned media from WT, APTK media, APTKA media, IL-1α (1 μg/mL) stimulated and APTKA plus anakinra (20 μg/mL) treated fibroblasts for 72 h (n=10 independent wells per group). […]

colon fibroblasts [3] = test: Oxidative DNA damage by 8-OHdG immunofluorescence in fibroblasts; assay type: cell-based, mouse; conditions: APTKA-conditioned medium plus W1400 1 mM, 72 h
Experimental: as §1

[4] = tested on: APTKA conditioned fibroblasts; test: Senescence induction in fibroblasts treated with APTKA-conditioned medium; assay type: cell-based, mouse; conditions: APTKA-conditioned medium plus W1400
Experimental: as §1

APTKA orthotopic tumours = test: Orthotopic APTKA organoid model with 5-FU chemotherapy, with or without radiotherapy; assay type: in vivo, C57BL/6 mice; conditions: 21 days
Experimental: (§2) FIG. 7: (A) APTKA organoids orthotopic transplantation into C57BL/6 mice followed by 5-fluorouracil (5-FU) chemotherapy (20 mg/Kg/day every 4 days for 21 days—experiment end point). Tumour area (mm3), % invasive area and liver metastasis frequency in untreated and 5-FU treated APTKA tumours (n=2 mice per group). Significant p-value<0.05 by t-test. (B and C) p21, pH2Ax IF and SA-ß gal staining quantifications and representative SA-ß gal staining images among untreated and 5-FU treated IL-1α (1 μg/mL) stimulated human fibroblasts and APTKA conditioned medium treated mouse fibroblasts. Significant p-value<0.05. Results representative of 4 independent experiments. Scale bars=100 μm.
The inventors further investigated, whether therapy resistance of tumours during treatment with cytotoxic chemotherapy is also connected to the senescence behavior of CAFs. For this, the orthotopic APTKA organoid C57BL/6 mice of the inventors' murine model were divided in three groups and subjected to different treatments. The groups consisted of a control group of untreated mice, a second group that was administered 20 mg/kg/day of the cytotoxic chemotherapeutic agent […] (5-FU) every 4 days and a third group that was treated with a therapy based on a concomitant administration of 5-FU and radiation therapy based on a fractionated irradiation schedule (5×2 Gy). After 21 days of treatment, parameters of tumour progression were determined. […] Overall, in vivo administration of the chemotherapy aggravated invasive growth and stimulated formation of liver metastases similarly to irradiation.

[5] = tested on: APTKA medium conditioned mouse fibroblasts; test: p21, pH2AX and SA-βgal staining of APTKA medium conditioned fibroblasts; assay type: cell-based; conditions: 5-FU treated vs non-treated
Experimental: as §2
In staining experiments, the inventors quantified the presence of nuclear p21, nuclear phosphorylated H2AX (pH2AX) and SA-βgal in APTKA medium conditioned mouse fibroblasts that were either left untreated or treated with 5-FU. […] (FIG. 7B). Overall, these experiments confirmed a chemotherapy induced senescence of the fibroblasts, when exposed to 5-FU.

[6] = tested on: IL-1α stimulated human fibroblasts; test: p21, pH2AX and SA-βgal staining of IL-1α stimulated fibroblasts; assay type: cell-based; conditions: IL-1α 1 μg/mL stimulated, 5-FU treated vs untreated
Experimental: as §2
Moreover, the inventors investigated the influence of chemotherapy on the IL-1α mediated changes to the tumour microenvironment in human cancer patients. Using staining experiments, the upregulation of pH2AX, p21, and SA-βgal in untreated and 5-FU treated IL-1α (1 μg/mL) stimulated human fibroblasts was quantified. […] Thus, targeting IL-1 in combination with chemotherapy may provide a substantial benefit particularly in tumours that are known to contain inflammatory cancer-associated fibroblasts such as pancreatic cancer, breast cancer or head and neck cancers.

[7] = 5-FU only, 20 mg/kg/day every 4 days, vs untreated control
[8] = concomitant 5-FU and radiotherapy (5×2 Gy), vs untreated control

C[S+]([O-])c1ccc(-c2nc(-c3ccncc3)c(-c3ccc(F)cc3)[nH]2)cc1 (centres unmarked) [SB203580]
induction of pro-inflammatory genes (Cxcl1, Cxcl2, Cxcl5, Mmp9, Mmp13, Il1a, 116, Tnfa, Nos2) ([1]; SB203580 10 μM): significantly inhibited the induction of pro-inflammatory genes

CC(=N)NCc1cccc(CN)c1 [W1400]
nitrite production (colon fibroblasts [2]): blocked nitrite production | oxidative DNA damage (8-OHdG immunofluorescence) (colon fibroblasts [3]): prevented oxidative DNA damage | senescence induction [4]: prevented oxidative DNA damage as well as senescence induction

COc1c(Cl)cc2c([nH]c3cnccc32)c1NC(=O)c1cccnc1C [ML120B]
induction of pro-inflammatory genes (Cxcl1, Cxcl2, Cxcl5, Mmp9, Mmp13, Il1a, 116, Tnfa, Nos2) ([1]; ML120B 30 μM): significantly inhibited the induction of pro-inflammatory genes

O=c1[nH]cc(F)c(=O)[nH]1 [5-FU, 5-fluorouracil]
liver metastases (APTKA orthotopic tumours; [7]): have developed liver metastases | tumour area (APTKA orthotopic tumours; [7]): significant increase in tumour area | tumour invasiveness (% invasive area) (APTKA orthotopic tumours; [7]): significant increase in tumour area and tumour invasiveness | liver metastases (APTKA orthotopic tumours; concomitant 5-FU and radiotherapy (5×2 Gy)): every mouse of this group suffered from liver metastases | invasive area (APTKA orthotopic tumours; [8]): significant increase in tumour area and invasive area | tumour area (APTKA orthotopic tumours; [8]): significant increase in tumour area | SA-βgal staining [5]: significant upregulation of SA-βgal | nuclear p21 [5]: significant upregulation of SA-βgal and nuclear p21 | nuclear phosphorylated H2AX (pH2AX) [5]: significant increase of pH2AX | SA-βgal [6]: significant increase of all three biomarkers | p21 [6]: significant increase of all three biomarkers | pH2AX [6]: significant increase of all three biomarkers

— patent US20230365673A1, “MEANS FOR REDUCING RADIO- AND CHEMOTHERAPY RESISTANCE AND ADVERSE EFFECTS” (JOHANN WOLFGANG GOETHE-UNIVERSITÄT FRANKFURT AM MAIN, priority 2020, published 2023)
